Assay [1] deals with Apo E knockout mice. Nature of the assay: Quantification of aortic sinus lesions (oil red O staining of aortic root). It is filed as in vivo, mouse. To be noted: rosuvastatin 20 mg/kg/day; its own control 0.36 ± 0.10.
From the text: Thirty-four male Apo E knockout mice were obtained from Jackson Laboratories (Bar Harbor, Me.). The mice were fed with normal mouse chow until 2 months of age and randomly allocated into two groups (n=17 each). One group of mice was then fed a control Western high-fat diet (F5722, fat 20%, cholesterol 2.1 gm/kg). […] CCO-Oil has approximately 20 wt % C16:1n7-palmitoleate. The consistency of the food was a paste; it appeared to be enticing to the mice and well tolerated. Water was freely available throughout the course of the study. Blood samples were obtained 8 and 12 weeks after initiation of the diet. At 12 weeks, all mice were sacrificed by intraperitoneal injection of ketamine/xylazine. […] Data were presented as mean±SD. Statistical analysis was performed with t-test. P<0.05 indicates statistical significance.
The surface area of aorta occupied by atherosclerotic lesions was quantified by en face oil red 0 staining, using an approach modified from Palinski et al. After mice were killed, a catheter was inserted into the left ventricle and the arterial tree was perfused with PBS (25 ml), followed by 4% buffered formaldehyde (20 ml, PH 7.4) at a pressure of 100 mm Hg. Under a microscope (Leica M500) the entire aorta attached to the heart was dissected and the adventitial fat was dissected. […]
For assay [2], the system named is Apo E knockout mice. Nature of the assay: Quantification of aorta lesions (en face Sudan IV staining). It is filed as in vivo, mouse. To be noted: rosuvastatin 20 mg/kg/day; its own control 21.9 ± 2.9, P<0.05.
From the text: Thirty-four male Apo E knockout mice were obtained from Jackson Laboratories (Bar Harbor, Me.). The mice were fed with normal mouse chow until 2 months of age and randomly allocated into two groups (n=17 each). One group of mice was then fed a control Western high-fat diet (F5722, fat 20%, cholesterol 2.1 gm/kg). The other group was fed a composition comprising C16:1n7-palmitoleate (CCO-Oil 20 wt %, cholesterol 2.1 gm/kg). […] Water was freely available throughout the course of the study. Blood samples were obtained 8 and 12 weeks after initiation of the diet. At 12 weeks, all mice were sacrificed by intraperitoneal injection of ketamine/xylazine. […] Data were presented as mean±SD. Statistical analysis was performed with t-test. P<0.05 indicates statistical significance.
The surface area of aorta occupied by atherosclerotic lesions was quantified by en face oil red 0 staining, using an approach modified from Palinski et al. After mice were killed, a catheter was inserted into the left ventricle and the arterial tree was perfused with PBS (25 ml), followed by 4% buffered formaldehyde (20 ml, PH 7.4) at a pressure of 100 mm Hg. Under a microscope (Leica M500) the entire aorta attached to the heart was dissected and the adventitial fat was dissected. The ascending aorta was transected, and the heart was placed in histo-choice for assessment of aortic root atherosclerosis. […]

The structures appear in SMILES notation.

Take `CC(C)c1nc(N(C)S(C)(=O)=O)nc(-c2ccc(F)cc2)c1/C=C/[C@@H](O)C[C@@H](O)CC(=O)O` [Rosuvastatin]: the “Aortic sinus lesion size” value in the assay on Apo E knockout mice [1] amounted to 0.35 ± 0.10 mm^2. Besides, in the assay on Apo E knockout mice [2], the “Aortic lesion (% of surface area)” value came to 11.9 ± 1.9 %.

For the origin of these results see US11419840B2, “Compositions and methods comprising C16:1N7-palmitoleate” (Tersus Life Sciences, LLC, priority 2011, dated 2022).
